Among the data in patent US6916933B2, “4-pyridinyl-n-acyl-l-phenylalanines” (Hoffman-La Roche Inc., priority 1999, dated 2005) are IC50 values, retold here.

Assay [1] deals with T1, VLA-4 (α4β1 integrin) binding to immobilized VCAM-1 (Homo sapiens, UniProt P05556+P13612).
T1 construct: followed by 10 μl of Ramos cell-derived VLA-4; endogenous in cells; host or cells: Ramos cells (VLA-4 preparation derived from the cells)
The experiment in a line: VLA-4/VCAM-1 Screening Assay (solid-phase, dual antibody ELISA). The following applies: Ramos cell-derived VLA-4, recombinant human VCAM-1 coated plates, 1 mM MnCl2. As to the method:
VLA-4/VCAM-1 Screening Assay
VLA-4 antagonist activity, defined as ability to compete for binding to immobilized VCAM-1, was quantitated using a solid-phase, dual antibody ELISA. VLA-4 (α4β1 integrin) bound to VCAM-1 was detected by a complex of anti-integrin β1 antibody: HRP-conjugated anti-mouse IgG: chromogenic substrate (K-Blue). Initially, this entailed coating 96 well plates (Nunc Maxisorp) with recombinant human VCAM-1 (0.4 μg in 100 μl PBS), sealing each plate and then allowing the plates to stand at 4° C. for ^˜18 hr. […] On the day of assay, all plates were washed twice with VCAM Assay Buffer (200 μl/well of 50 mM Tris-HCl, 100 mM NaCl, 1 mM MnCl2, 0.05% Tween 20; pH 7.4). Test compounds were dissolved in 100% DMSO and then diluted 1:20 in VCAM Assay Buffer supplemented with 1 mg/mL BSA (i.e., final DMSO=5%). A series of 1:4 dilutions were performed to achieve a concentration range of 0.005 nM-1.563 μM for each test compound. 100 μl per well of each dilution was added to the VCAM-coated plates, followed by 10 μl of Ramos cell-derived VLA-4. These plates were sequentially mixed on a platform shaker for 1 min, incubated for 2 hr at 37° C., and then washed four times with 200 μl/well VCAM Assay Buffer. 100 μl of mouse anti-human integrin β1 antibody was added to each well (0.6 μg/mL in VCAM Assay Buffer+1 mg/mL BSA) and allowed to incubate for 1 hr at 37° C. At the conclusion of this incubation period, all plates were washed four times with VCAM Assay Buffer (200 μl/well). A corresponding second antibody, HRP-conjugated goat anti-mouse IgG (100 μl per well @ 1:800 dilution in VCAM Assay Buffer+1 mg/mL BSA), was then added to each well, followed by a 1 hr incubation at room temperature and concluded by three washes (200 μl/well) with VCAM Assay Buffer. Color development was initiated by addition of 100 μl K-Blue per well (15 min incubation, room temp) and terminated by addition of 100 μl Red Stop Buffer per well. All plates were then read in a UV/V is spectrophotometer at 650 nM. Results were calculated as % inhibition of total binding (i.e., VLA-4+VCAM-1 in the absence of test compound).
The results are provided in the following Table I (A=IC50<1 nM, B=IC50<10 nM): […]

The target in assay [2] is T2, cell-surface VLA-4 (α4β1 integrin) on Ramos cells binding to immobilized VCAM-1 (Homo sapiens, UniProt P05556+P13612).
T2 construct: Ramos cells bearing cell-surface VLA-4; endogenous in cells; host or cells: Ramos cells (VLA-4); VCAM-1 partner made in CHO cells
Nature of the assay: Ramos (VLA-4)/VCAM-1 Cell-Based Screening Assay (cell adhesion). The following applies: Calcein-AM labeled Ramos cells, VCAM-1 coated plates. As to the method: Ramos (VLA-4)/VCAM-1 Cell-Based Screening Assay Protocol
Soluble recombinant human VCAM-1 (mixture of 5- and 7-Ig domain) was purified from CHO cell culture media by immunoaffinity chromatography and maintained in a solution containing 0.1 M Tris-glycine (pH 7.5), 0.1 M NaCl, 5 mM EDTA, 1 mM PMSF, […] NaN3 and 10 μg/mL leupeptin. Calcein-AM was purchased from Molecular Probes Inc.
VLA-4 (α4β1 integrin) antagonist activity, defined as ability to compete with cell-surface VLA-4 for binding to immobilized VCAM-1, was quantitated using a Ramos-VCAM-1 cell adhesion assay. Ramos cells bearing cell-surface VLA-4, were labeled with a fluorescent dye (Calcein-AM) and allowed to bind VCAM-1 in the presence or absence of test compounds. A reduction in fluorescence intensity associated with adherent cells (% inhibition) reflected competitive inhibition of VLA-4 mediated cell adhesion by the test compound.
Initially, this entailed coating 96 well plates (Nunc Maxisorp) with recombinant human VCAM-1 (100 ng in 100 μl PBS), sealing each plate and allowing the plates to stand at 4° C. for ≈18 hr. The VCAM-coated plates were subsequently washed twice with 0.05% Tween-20 in PBS, and then blocked for 1 hr (room temperature) with 200 μl of Blocking Buffer (1% BSA/0.02% thimerosal) to reduce non-specific binding. Following the incubation with Blocking Buffer, plates were inverted, blotted and the remaining buffer aspirated. Each plate was then washed with 300 μl PBS, inverted and the remaining PBS aspirated.
Test compounds were dissolved in 100% DMSO and then diluted 1:25 in VCAM Cell Adhesion Assay Buffer (4 mM CaCl2, 4 mM MgCl2 in 50 mM TRIS-HCl, pH 7.5) (final DMSO=4%). A series of eight 1:4 dilutions were performed for each compound (general concentration range of 1 nM-12,500 nM). 100 μl/well of each dilution was added to the VCAM-coated plates, followed by 100 μl of Ramos cells (200,000 cells/well in 1% BSA/PBS). Plates containing test compounds and Ramos cells were allowed to incubate for 45 min at room temperature, after which 165 μl/well PBS was added. Plates were inverted to remove non-adherent cells, blotted and 300 μL/well PBS added. Plates were again inverted, blotted and the remaining buffer gently aspirated. 100 μl Lysis Buffer (0.1% SDS in 50 mM TRIS-HCl, pH 8.5) was added to each well and agitated for 2 min on a rotary shaking platform. The plates were then read for fluorescence intensity on a Cytofluor 2300 (Millipore) fluorecence measurement system (excitation=485 nm, emission=530 nm).
The results are provided in the following Table II (A=IC50<100 nM, B=IC50<10000 nM, C=IC50<5,000 nM): […]

Some results are limits rather than exact numbers.

T1 sequence (P13612 34-1032): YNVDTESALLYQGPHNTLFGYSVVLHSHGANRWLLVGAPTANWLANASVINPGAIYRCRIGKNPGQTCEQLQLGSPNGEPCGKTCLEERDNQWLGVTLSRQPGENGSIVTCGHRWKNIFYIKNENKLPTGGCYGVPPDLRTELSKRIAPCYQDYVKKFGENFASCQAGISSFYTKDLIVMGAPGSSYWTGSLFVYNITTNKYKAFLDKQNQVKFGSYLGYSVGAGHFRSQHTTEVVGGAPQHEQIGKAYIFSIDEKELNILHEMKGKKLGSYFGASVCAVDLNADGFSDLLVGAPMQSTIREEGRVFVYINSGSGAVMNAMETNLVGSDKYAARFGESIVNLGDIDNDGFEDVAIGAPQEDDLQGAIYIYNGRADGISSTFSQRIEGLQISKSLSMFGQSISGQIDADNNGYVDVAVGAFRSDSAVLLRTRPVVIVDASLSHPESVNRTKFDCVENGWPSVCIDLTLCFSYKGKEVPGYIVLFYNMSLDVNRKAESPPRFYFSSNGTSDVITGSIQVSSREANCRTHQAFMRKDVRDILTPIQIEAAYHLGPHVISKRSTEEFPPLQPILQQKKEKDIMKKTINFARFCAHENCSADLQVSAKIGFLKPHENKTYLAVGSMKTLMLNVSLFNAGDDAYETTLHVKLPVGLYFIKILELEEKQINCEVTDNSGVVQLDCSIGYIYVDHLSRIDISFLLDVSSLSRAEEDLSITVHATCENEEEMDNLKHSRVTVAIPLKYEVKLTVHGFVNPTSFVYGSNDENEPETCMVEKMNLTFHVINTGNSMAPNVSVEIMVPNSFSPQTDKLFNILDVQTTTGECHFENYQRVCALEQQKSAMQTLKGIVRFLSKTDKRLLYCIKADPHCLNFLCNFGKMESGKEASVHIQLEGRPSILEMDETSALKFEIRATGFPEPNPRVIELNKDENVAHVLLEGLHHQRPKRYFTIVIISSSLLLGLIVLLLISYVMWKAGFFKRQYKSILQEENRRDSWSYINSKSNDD
T1 sequence (P05556 21-798): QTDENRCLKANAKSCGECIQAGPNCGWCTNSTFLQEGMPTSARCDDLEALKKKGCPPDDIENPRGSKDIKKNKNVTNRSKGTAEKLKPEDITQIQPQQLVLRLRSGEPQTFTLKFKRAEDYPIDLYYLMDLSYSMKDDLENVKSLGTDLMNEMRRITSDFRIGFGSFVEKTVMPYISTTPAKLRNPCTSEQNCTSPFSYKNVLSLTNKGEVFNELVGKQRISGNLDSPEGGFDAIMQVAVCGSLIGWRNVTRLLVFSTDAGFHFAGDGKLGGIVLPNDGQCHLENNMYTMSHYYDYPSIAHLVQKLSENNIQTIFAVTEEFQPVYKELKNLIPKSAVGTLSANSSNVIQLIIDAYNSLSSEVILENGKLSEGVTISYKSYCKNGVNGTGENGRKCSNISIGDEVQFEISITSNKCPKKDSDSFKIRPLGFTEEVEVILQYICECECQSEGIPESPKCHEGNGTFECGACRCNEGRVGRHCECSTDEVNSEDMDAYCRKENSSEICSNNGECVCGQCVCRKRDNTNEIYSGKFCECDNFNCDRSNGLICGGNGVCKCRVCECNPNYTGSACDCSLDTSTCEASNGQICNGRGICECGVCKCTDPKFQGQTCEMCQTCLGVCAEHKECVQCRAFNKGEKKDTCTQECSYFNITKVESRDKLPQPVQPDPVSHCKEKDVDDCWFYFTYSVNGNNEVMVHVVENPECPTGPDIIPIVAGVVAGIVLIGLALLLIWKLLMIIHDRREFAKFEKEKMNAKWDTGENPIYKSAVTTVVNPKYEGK
T2 sequence (P13612 34-1032): as the sequence (P13612 34-1032) above
T2 sequence (P05556 21-798): as the sequence (P05556 21-798) above

For the compound `Cc1cccc(Cl)c1C(=O)N[C@@H](Cc1ccc(-c2cc(Cl)cn(C)c2=O)cc1)C(=O)O` [Example 8, N-[(2-chloro-6-methylphenyl)carbonyl]-4-(5-chloro-1-methyl-2-oxo-3-pyridinyl)-L-phenylalanine], the values for the IC50 in assay [1] and in assay [2] were under 1 nM and under 10000 nM, respectively.

With `COCCC1(C(=O)N[C@@H](Cc2ccc(-c3cc(Cl)cn(C)c3=O)cc2)C(=O)O)CCCC1` [Example 10, 4-(5-chloro-1-methyl-2-oxo-3-pyridinyl)-N-[[1-(2-methoxyethyl)cyclopentyl]carbonyl]-L-phenylalanine], the IC50 (usually the concentration that inhibits the measured activity by half) was under 10 nM in assay [1] and under 10000 nM in assay [2].

Turning to `Cc1cccc(Cl)c1C(=O)N[C@@H](Cc1ccc(-c2cc(Cl)cn(Cc3ccccc3)c2=O)cc1)C(=O)O` [Example 15, 4-(1-Benzyl-5-chloro-2-oxo-3-pyridinyl)-N-[(2-chloro-6-methylphenyl)carbonyl]-L-phenylalanine], the IC50 in assay [1] was under 10 nM; in assay [2], under 5000 nM.

Regarding `COCCC1(C(=O)N[C@@H](Cc2ccc(-c3cc(Cl)cn(Cc4ccccc4)c3=O)cc2)C(=O)O)CCCC1` [Example 17, 4-(1-Benzyl-5-chloro-2-oxo-3-pyridinyl)-N-[[1-(2-methoxyethyl)cyclopentyl]carbonyl]-L-phenylalanine], the IC50 in assay [1] is under 10 nM.

Take `COc1ccc(Br)c(C(=O)N[C@@H](Cc2ccc(-c3cccn(C)c3=O)cc2)C(=O)O)c1` [Example 24, N-[(2-bromo-5-methoxyphenyl)carbonyl]-4-(1-methyl-2-oxo-3-pyridinyl)-L-phenylalanine]: the IC50 in assay [1] was under 1 nM; in assay [2], under 10000 nM.

On to `COc1ccc(Br)c(C(=O)N[C@@H](Cc2ccc(-c3cc(Br)cn(C)c3=O)cc2)C(=O)O)c1` [Example 28, N-[(2-bromo-5-methoxyphenyl)carbonyl]-4-(5-bromo-1-methyl-2-oxo-3-pyridinyl)-L-phenylalanine], for which the figures for the IC50 in assay [1] and in assay [2] were under 1 nM and under 5000 nM, respectively.
